# Measured values published in ChEMBL document CHEMBL5260845, “Flavone-based arylamides as potential anticancers: Design, synthesis and in vitro cell-based/cell-free evaluations” (2020).
# Calls of active or inactive are those of the source. The rule behind the calls is not given here.
# Columns and labels:
# NCI-H460 = assay: Antiproliferative activity against human NCI-H460 cells assessed as cell growth inhibition at 10 uM by SRB assay relative to control; type: functional
# NCI-H226 = assay: Antiproliferative activity against human NCI-H226 cells assessed as cell growth inhibition at 10 uM by SRB assay relative to control; type: functional; conditions: pooled result: one value given for 4 cell lines, strains, targets or settings
# [1] = target: Ephrin type-B receptor 4 (Homo sapiens) (UniProt P54760); assay: Inhibition of EPHB4 (unknown origin) at 10 uM by biochemical hotspot kinase assay
# [2] = target: RAF proto-oncogene serine/threonine-protein kinase (Homo sapiens) (UniProt P04049); assay: Inhibition of c-RAF (unknown origin) at 10 uM by biochemical hotspot kinase assay relative to control
# RAF proto-oncogene serine/threonine-protein kinase (Homo sapiens), sequence (P04049 whole entry): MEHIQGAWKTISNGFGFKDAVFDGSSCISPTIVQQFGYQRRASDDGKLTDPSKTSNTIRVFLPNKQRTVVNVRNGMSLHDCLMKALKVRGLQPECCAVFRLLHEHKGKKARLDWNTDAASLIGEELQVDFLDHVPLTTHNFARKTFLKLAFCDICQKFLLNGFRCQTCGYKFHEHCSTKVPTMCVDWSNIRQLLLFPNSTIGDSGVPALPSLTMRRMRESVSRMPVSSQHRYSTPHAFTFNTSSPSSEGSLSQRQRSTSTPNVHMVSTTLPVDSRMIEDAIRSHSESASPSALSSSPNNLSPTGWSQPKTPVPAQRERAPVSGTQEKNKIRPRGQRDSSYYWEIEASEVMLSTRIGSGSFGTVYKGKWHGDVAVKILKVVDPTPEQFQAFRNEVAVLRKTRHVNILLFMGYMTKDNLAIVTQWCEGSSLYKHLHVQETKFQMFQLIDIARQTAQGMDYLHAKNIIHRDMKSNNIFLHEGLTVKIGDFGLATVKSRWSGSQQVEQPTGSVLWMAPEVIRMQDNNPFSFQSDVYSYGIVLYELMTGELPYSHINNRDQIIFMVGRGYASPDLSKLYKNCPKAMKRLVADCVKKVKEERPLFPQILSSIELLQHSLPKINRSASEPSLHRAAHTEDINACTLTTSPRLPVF
# [3] = target: Tyrosine-protein kinase BTK (Homo sapiens) (UniProt Q06187); assay: Inhibition of BTK (unknown origin) at 10 uM by biochemical hotspot kinase assay relative to control
# [4] = target: Serine/threonine-protein kinase B-raf (Homo sapiens) (UniProt P15056); assay: Inhibition of B-RAF (unknown origin) at 10 uM by biochemical hotspot kinase assay relative to control
# [5] = target: Serine/threonine-protein kinase Chk2 (Homo sapiens) (UniProt O96017); assay: Inhibition of CHK2 (unknown origin) at 10 uM by biochemical hotspot kinase assay relative to control
# HT-29 = assay: Induction of cell cycle arrest in human HT-29 cells assessed as accumulation of cells at G1 phase at 10 uM incubated for 24 hrs by PI staining based analysis (reference value: 40.3%); type: functional
# [6] = target: Fibroblast growth factor receptor 2 (Homo sapiens) (UniProt P21802); assay: Inhibition of FGFR2 (unknown origin) at 10 uM by biochemical hotspot kinase assay
# [7] = target: Tyrosine-protein kinase SYK (Homo sapiens) (UniProt P43405); assay: Inhibition of SYK (unknown origin) at 10 uM by biochemical hotspot kinase assay relative to control
# [8] = target: Hepatocyte growth factor receptor (Homo sapiens) (UniProt P08581); assay: Inhibition of c-MET (unknown origin) at 10 uM by biochemical hotspot kinase assay relative to control
# [9] = target: Death-associated protein kinase 3 (Homo sapiens) (UniProt O43293); assay: Inhibition of DAPK3 (unknown origin) at 10 uM by biochemical hotspot kinase assay
# Death-associated protein kinase 3 (Homo sapiens), sequence (O43293 whole entry, looked up): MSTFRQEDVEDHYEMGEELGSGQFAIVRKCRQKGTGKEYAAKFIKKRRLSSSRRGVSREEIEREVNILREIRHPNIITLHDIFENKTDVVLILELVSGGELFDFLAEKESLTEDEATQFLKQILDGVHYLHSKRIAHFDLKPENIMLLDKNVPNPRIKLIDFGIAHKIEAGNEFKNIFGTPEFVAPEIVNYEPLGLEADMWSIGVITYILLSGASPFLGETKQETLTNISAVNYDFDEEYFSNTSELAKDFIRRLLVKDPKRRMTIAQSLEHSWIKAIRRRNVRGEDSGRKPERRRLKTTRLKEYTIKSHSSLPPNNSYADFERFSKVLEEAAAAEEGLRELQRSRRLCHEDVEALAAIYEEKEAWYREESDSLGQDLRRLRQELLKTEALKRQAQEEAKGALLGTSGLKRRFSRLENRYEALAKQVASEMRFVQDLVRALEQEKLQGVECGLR
# [10] = target: Rho-associated protein kinase 1 (Homo sapiens) (UniProt Q13464); assay: Inhibition of ROCK1 (unknown origin) at 10 uM by biochemical hotspot kinase assay
# Rho-associated protein kinase 1 (Homo sapiens), sequence (Q13464 2-1354 limits assumed): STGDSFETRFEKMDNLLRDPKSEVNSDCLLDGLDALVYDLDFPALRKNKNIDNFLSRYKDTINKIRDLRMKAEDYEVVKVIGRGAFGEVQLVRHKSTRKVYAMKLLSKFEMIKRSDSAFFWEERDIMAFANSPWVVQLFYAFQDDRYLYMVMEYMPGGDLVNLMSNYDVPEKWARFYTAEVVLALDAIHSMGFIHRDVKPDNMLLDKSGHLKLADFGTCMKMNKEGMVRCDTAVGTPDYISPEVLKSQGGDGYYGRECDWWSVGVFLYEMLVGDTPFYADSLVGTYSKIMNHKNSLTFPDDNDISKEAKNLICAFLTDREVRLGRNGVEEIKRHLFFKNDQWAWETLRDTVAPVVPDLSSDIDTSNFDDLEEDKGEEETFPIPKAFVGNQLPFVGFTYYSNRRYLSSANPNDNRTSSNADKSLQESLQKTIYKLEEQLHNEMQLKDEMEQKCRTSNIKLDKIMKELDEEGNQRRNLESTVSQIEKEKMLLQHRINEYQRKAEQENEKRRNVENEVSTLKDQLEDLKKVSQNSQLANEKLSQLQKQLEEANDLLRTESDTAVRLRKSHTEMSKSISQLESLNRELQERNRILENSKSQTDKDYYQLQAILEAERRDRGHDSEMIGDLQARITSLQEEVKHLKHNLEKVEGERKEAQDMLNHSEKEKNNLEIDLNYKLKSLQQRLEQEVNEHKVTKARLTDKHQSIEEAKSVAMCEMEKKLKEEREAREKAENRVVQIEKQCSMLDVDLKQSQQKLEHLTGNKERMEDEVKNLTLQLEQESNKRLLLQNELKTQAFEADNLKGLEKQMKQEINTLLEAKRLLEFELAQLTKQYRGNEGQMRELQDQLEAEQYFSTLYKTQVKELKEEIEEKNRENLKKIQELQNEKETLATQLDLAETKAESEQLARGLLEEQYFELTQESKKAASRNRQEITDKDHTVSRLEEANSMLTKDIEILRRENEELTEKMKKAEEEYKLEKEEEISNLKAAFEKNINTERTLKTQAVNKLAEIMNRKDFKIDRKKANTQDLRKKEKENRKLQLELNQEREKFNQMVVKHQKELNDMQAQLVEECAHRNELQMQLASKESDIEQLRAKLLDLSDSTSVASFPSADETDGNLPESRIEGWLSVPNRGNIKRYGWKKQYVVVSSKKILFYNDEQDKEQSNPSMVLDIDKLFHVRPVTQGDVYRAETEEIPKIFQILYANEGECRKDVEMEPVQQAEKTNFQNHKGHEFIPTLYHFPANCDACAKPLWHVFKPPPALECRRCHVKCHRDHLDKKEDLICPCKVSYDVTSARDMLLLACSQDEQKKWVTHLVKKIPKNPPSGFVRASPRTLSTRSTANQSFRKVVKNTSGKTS
# [11] = target: Phosphorylase b kinase gamma catalytic chain, liver/testis isoform (Homo sapiens) (UniProt P15735); assay: Inhibition of PHKG2 (unknown origin) at 10 uM by biochemical hotspot kinase assay relative to control
# Phosphorylase b kinase gamma catalytic chain, liver/testis isoform (Homo sapiens), sequence (P15735 whole entry, canonical isoform): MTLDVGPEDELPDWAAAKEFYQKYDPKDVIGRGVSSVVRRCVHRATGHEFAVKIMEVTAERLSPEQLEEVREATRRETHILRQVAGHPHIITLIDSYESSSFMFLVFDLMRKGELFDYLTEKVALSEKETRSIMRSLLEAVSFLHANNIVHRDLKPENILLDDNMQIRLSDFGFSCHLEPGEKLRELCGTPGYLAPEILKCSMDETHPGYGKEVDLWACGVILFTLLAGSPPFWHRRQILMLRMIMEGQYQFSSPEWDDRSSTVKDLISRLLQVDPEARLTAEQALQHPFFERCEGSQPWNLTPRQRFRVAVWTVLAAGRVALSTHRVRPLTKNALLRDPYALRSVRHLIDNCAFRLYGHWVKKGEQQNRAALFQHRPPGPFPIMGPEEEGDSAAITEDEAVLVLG
# [12] = target: Ribosomal protein S6 kinase alpha-1 (Homo sapiens) (UniProt Q15418); assay: Inhibition of RSK1 (unknown origin) at 10 uM by biochemical hotspot kinase assay
# [13] = target: Proto-oncogene tyrosine-protein kinase receptor Ret (Homo sapiens) (UniProt P07949); assay: Inhibition of RET (unknown origin) at 10 uM by biochemical hotspot kinase assay
# Proto-oncogene tyrosine-protein kinase receptor Ret (Homo sapiens), sequence (P07949 whole entry): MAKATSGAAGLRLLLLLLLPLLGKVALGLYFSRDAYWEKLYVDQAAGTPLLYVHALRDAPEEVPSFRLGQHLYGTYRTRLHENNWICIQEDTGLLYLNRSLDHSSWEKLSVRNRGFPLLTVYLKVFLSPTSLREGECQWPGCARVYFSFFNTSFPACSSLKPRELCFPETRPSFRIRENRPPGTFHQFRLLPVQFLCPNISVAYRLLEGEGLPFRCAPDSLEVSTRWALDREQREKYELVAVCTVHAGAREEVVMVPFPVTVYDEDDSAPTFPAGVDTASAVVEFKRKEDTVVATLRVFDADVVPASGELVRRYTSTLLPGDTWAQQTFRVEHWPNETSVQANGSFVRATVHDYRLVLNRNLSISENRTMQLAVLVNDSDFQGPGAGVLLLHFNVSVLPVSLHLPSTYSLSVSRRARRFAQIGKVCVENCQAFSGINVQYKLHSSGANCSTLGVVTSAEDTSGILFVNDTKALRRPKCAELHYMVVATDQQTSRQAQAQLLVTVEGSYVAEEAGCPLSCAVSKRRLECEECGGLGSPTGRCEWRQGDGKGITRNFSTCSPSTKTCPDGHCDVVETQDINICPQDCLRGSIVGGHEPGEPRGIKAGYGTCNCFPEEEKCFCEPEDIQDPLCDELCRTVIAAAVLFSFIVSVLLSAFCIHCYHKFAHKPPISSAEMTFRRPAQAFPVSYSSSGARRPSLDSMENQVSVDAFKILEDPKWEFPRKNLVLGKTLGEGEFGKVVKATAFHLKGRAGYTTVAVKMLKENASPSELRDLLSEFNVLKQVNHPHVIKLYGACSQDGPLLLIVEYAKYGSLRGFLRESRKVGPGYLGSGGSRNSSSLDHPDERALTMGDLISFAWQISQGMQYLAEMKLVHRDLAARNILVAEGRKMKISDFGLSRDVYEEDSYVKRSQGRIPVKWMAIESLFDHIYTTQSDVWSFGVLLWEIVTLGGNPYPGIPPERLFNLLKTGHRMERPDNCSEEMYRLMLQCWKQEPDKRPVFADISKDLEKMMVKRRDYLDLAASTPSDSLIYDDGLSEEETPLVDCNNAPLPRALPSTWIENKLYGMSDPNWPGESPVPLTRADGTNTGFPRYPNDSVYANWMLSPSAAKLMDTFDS
# [14] = target: Ephrin type-A receptor 3 (Homo sapiens) (UniProt P29320); assay: Inhibition of EPHA3 (unknown origin) at 10 uM by biochemical hotspot kinase assay relative to control
# Ephrin type-A receptor 3 (Homo sapiens), sequence (P29320 whole entry): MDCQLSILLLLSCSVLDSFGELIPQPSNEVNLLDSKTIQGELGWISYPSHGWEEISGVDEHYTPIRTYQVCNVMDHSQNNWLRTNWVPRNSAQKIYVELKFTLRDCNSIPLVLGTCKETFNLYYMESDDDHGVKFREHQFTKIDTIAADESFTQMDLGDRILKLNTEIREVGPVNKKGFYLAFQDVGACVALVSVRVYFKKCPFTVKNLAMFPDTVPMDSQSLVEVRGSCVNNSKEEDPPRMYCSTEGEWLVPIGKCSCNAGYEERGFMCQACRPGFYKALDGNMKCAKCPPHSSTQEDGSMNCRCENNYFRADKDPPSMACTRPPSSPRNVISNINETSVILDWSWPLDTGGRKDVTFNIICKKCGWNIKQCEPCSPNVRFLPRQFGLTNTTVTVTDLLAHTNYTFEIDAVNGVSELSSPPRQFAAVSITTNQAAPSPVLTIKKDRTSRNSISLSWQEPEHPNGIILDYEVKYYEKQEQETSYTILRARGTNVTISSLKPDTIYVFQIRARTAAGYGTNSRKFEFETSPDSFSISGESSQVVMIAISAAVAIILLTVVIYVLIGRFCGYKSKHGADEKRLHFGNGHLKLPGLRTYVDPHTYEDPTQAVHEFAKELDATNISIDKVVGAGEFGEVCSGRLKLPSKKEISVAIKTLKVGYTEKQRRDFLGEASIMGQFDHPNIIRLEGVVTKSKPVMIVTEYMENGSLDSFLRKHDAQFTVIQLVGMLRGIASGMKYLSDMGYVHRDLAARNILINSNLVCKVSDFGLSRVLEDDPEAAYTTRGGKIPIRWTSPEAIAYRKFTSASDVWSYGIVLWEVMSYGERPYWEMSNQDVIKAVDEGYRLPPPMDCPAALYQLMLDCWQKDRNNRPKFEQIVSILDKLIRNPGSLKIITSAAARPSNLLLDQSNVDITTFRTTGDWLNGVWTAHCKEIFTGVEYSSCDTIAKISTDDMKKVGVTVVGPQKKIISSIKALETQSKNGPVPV
# [15] = target: Mitogen-activated protein kinase 3 (Homo sapiens) (UniProt P27361); assay: Inhibition of ERK1 (unknown origin) at 10 uM by biochemical hotspot kinase assay
# [16] = target: Death-associated protein kinase 2 (Homo sapiens) (UniProt Q9UIK4); assay: Inhibition of DAPK2 (unknown origin) at 10 uM by biochemical hotspot kinase assay relative to control
structure (smiles),measurement,setting,value
COc1cc2oc(-c3cccc(C(=O)Nc4ccc(Cl)cc4)c3)cc(=O)c2c(OC)c1OC,inhibition at 10 µM,NCI-H460,74.8%
same,inhibition at 10 µM,NCI-H226,51.8%
COc1cc2oc(-c3cccc(C(=O)Nc4ccc(C)cc4)c3)cc(=O)c2c(OC)c1OC,inhibition,[1],inactive
same,inhibition,[2],3.26%
same,inhibition,[3],9.9%
same,inhibition,[4],34.3%
same,inhibition,[5],6.31%
same,Activity,HT-29,64%
same,inhibition,[6],inactive
same,inhibition,[7],1.17%
same,inhibition,[8],27.1%
same,inhibition,[9],inactive
same,inhibition,[10],inactive
same,inhibition,[11],8.33%
same,inhibition,[12],inactive
same,inhibition,[13],inactive
same,inhibition,[14],7.95%
same,inhibition,[15],inactive
same,inhibition,[16],0.74%
